# In US6339075B1, “Use of dextran and other polysaccharides to improve mucus clearance” (The University of British Columbia, priority 1997, dated 2002):
# Tested on: healthy mongrel dogs
# Assay: Arginine aerosol with or without dextran in anaesthetized dogs: PD, TMV, mucus rigidity
# Format: in vivo, dog
# Procedure: Arginine/arg. HCl was prepared as described by Solomons (Pediatrics 1971;47:384), making a stock solution of 290 mOsm, pH 7.4. Two dilutions were prepared, 97 and 29 mOsm, the balance being Ringers. The solutions were delivered by Pari jet nebulizer to 8 healthy mongrel dogs anaesthetized with pentobarbital and intubated. After 30 min. Ringer aerosol, tracheal mucus velocity (TMV by charcoal particle transport) and potential difference (PD by agar bridge) were measured under bronchoscopic control, and mucus for viscoelasticity analysis (magnetic rheometer) was collected on the endotracheal tube. On one occasion, increasing arginine conc. were aerosolized hourly, following Ringer control. On a second occasion, the same arginine solutions were used, but with 65 mg/ml low m. w. dextran (Polydex, lot #2764) added.
smiles,measurement,setting,value
"N=C(N)NCCC[C@H](N)C(=O)O [arginine, L-arginine]",TMV,"arginine aerosol with or without dextran, increased nonsignificantly from 11.9±2.2 (Ringer)",14.7±2.9 mm/min
same,mucus rigidity (log G*) decreased,arginine aerosol without dextran,not
same,lumen-negative PD,"increasing arginine aerosol, with or without added dextran 65 mg/ml, Ringer −14.3±1.4 mV",−20.1±3.6 mV
